{"source": "patent US12138346B2", "about": "“Physiologically active substance carrier” (LEMONEX INC., priority 2017, dated 2024)", "molecules": {"B1": {"name": "RNase A: RNase A (Sigma Aldrich, R6513), fluorescence labeled, loaded on particles of Example 1-(9) (protein, UniProt P61823 27-150, looked up)", "Ribonuclease pancreatic": "KETAAAKFERQHMDSSTSAASSSNYCNQMMKSRNLTKDRCKPVNTFVHESLADVQAVCSQKNVACKNGQTNCYQSYSTMSITDCRETGSSKYPNCAYKTTQANKHIIVACEGNPYVPVHFDASV", "modifications": "fluorescence labeled"}}, "assay_type_in_all_cases": "physicochemical", "key": {"[1]": {"assay": "Release of doxorubicin from porous silica particles", "conditions": "loaded on porous silica particles of Example 1-(1); PBS, 37° C., 200 rpm", "procedure": "0.5 mg of porous silica particles loaded with doxorubicin (0.1 mg) was dispersed in PBS. This solution was maintained in a dynamic condition for horizontal agitation at 37° C. and 200 rpm. The doxorubicin-loaded porous silica solution was settled by a centrifugal separator at each time point, an absorbance of the supernatant (λab=480 nm) was measured to determine an amount of released doxorubicin, and results thereof are shown in FIG. 13."}, "[2]": {"assay": "Release of irinotecan from porous silica particles in human plasma", "conditions": "loaded on negatively charged particles of Example 2-(3)-1), 37° C., 200 rpm", "procedure": "1 mg of porous silica particles loaded with irinotecan (0.2 mg) was dispersed in 1 mL of human plasma. This solution was maintained in a dynamic condition for horizontal agitation at 37° C. and 200 rpm. The irinotecan-loaded porous silica solution was settled by a centrifugal separator at each time point, an absorbance of the supernatant (λab=255 or 278 nm) was measured to determine an amount of released irinotecan, and results thereof are shown in FIG. 14."}, "[3]": {"assay": "Release of sorafenib from porous silica particles", "conditions": "loaded on particles of Example 1-(11)-5)(i) (hydrophobic substituent); 1×PBS, 37° C., 200 rpm", "procedure": "1 mg of porous silica particles loaded with sorafenib (0.1 mg) was dispersed in 10 mL of 1×PBS mL. This solution was maintained in a dynamic condition for horizontal agitation at 37° C. and 200 rpm. The sorafenib-loaded porous silica solution was settled by a centrifugal separator at each time point, an absorbance of the supernatant (λab=270 nm) was measured to determine an amount of released sorafenib, and results thereof are shown in FIG. 15."}, "[4]": {"assay": "Release of p53 peptides from porous silica particles", "conditions": "loaded on particles of Example 1-(11)-5)(i), 37° C., 20 rpm", "procedure": "5 mg of particles loaded with p53 peptides was put in 5 mL of 1×PBS containing 10% FBS or 5 mL of 1×PBS, and held in a dynamic environment while rotating at 37° C. and 20 rpm. The solution was centrifuged at 8500 rpm at each time point, and a fluorescent intensity of 5(6)-carboxy fluorescein (FAM) as a fluorescent label coupled to p53 peptide in the supernatant was measured ([…]: 480 nm, Emission: 520 nm)."}, "[5]": {"assay": "Release of Cy5-siRNA from porous silica particles", "conditions": "Cy5-siRNA loaded on particles of Example 2-(1)-2)(ii); SBF (pH 7.4, 37° C.), 60 rpm", "procedure": "10 μl of the porous silica particles loaded with Cy5-siRNA was re-suspended in SBF (pH 7.4, 37° C.) and then put in a permeable membrane having a pore diameter of 20 kDa (tube in FIG. 18).\nThereafter, the permeable tube was dipped in 1.5 ml of SBF.\nBefore 24 hours, the released solvent was recovered at a time passing 0.5, 1, 2, 4, 8, 12 and 24 hours. Thereafter, 0.5 ml of released solvent was recovered at an interval of 24 hours for fluorescence measurement, followed by addition of SBF in equal amount.\nFluorescent intensity of Cy5-siRNA was measured at a wavelength of 670 nm (λex=647 nm) to determine a release degree of siRNA, and results thereof are shown in FIG. 19."}, "[6]": {"assay": "Release of RNase A from porous silica particles", "conditions": "over 250 hours or more; SBF (pH 7.4) or PBS (pH 7.4), 37° C.; loaded on particles of Example 1-(9)", "protocol": "100 μg of the porous silica particles loaded with RNase A having fluorescence labeled therewith was re-suspended in 200 μl of SBF (pH 7.4) or PBS (pH 7.4).\nRelease of RNase A was performed at 37° C. while horizontally stirring at 60 rpm.\nAt a time point of 6, 12, 24, 48, 96, 144 and 240 hours, 200 μl of released solvent was recovered for fluorescence measurement, followed by addition of SBF or PBS in equal amount."}}}
{"molecule": "COc1cccc2c1C(=O)c1c(O)c3c(c(O)c1C2=O)C[C@@](O)(C(=O)CO)C[C@@H]3O[C@H]1C[C@H](N)[C@H](O)[C@H](C)O1", "note": "[doxorubicin]", "values": [{"measurement": "release of doxorubicin (in words)", "setting": "[1]", "value": "relatively quickly released"}, {"measurement": "time over which doxorubicin was continuously released", "setting": "[1]", "value": "≥ 70", "unit": "h"}]}
{"molecule": "CCc1c2c(nc3ccc(OC(=O)N4CCC(N5CCCCC5)CC4)cc13)-c1cc3c(c(=O)n1C2)COC(=O)[C@]3(O)CC", "note": "[irinotecan]", "values": [{"measurement": "irinotecan released", "setting": "[2]; after 5.5 hours", "value": "about 50%"}, {"measurement": "time over which irinotecan was continuously released", "setting": "[2]", "value": "≥ 120", "unit": "h"}]}
{"molecule": "CNC(=O)c1cc(Oc2ccc(NC(=O)Nc3ccc(Cl)c(C(F)(F)F)c3)cc2)ccn1", "note": "[sorafenib]", "values": [{"measurement": "release of sorafenib (in words)", "setting": "[3]", "value": "very slowly released"}]}
{"molecule": "Z-Gly-Gly-Qln-Ser-Qln-Qln-Thr-Phe-Y-Asn-Leu-Trp-Arg-Leu-Leu-X-Qln-Asn-NH2 (GGXSXXTFXNLWRLLXXN; not fully specified; FAM label; triazole staple; C-terminal amide; p53 peptide; SITE 3 1 - Xaa is Qln; 2 - Xaa is Qln; SITE 9 3 - Xaa is a non-natural amino acid introduced with an alkyne functional group wherein 4-pentynoic acid is introduced at a side chain of D-Lys; SITE 16 4 - Xaa is a non-natural amino acid introduced with an azide functional group and denotes 2-amino-5-azido-pentanoic acid; SITE 17 5 - Xaa is Qln) [FAM-labelled triazole-stapled peptide mimicking p53, antagonist of hMDM2]", "values": [{"measurement": "release of p53 peptide (in words)", "setting": "[4]; 1×PBS containing 10% FBS", "value": "may be released outside the particle"}, {"measurement": "release of p53 peptide (in words)", "setting": "[4]; 1×PBS", "value": "not released"}]}
{"molecule": "siRNA: 21 base pair duplex siRNA that targets green fluorescent protein (GFP), SEQ ID NO: 1 and 2; loaded on particles of Example 2-(1)-2)(ii) (sense GGCUACGUCCAGGAGCGCACC; antisense UGCGCUCCUGGACGUAGCCUU; Cy5 label, chemistry not fully specified)", "values": [{"measurement": "time over which 50% of siRNA was released", "setting": "[5]", "value": "about 48 hours"}]}
{"molecule": "B1", "values": [{"measurement": "RNase A released", "setting": "[6]", "value": "~100", "unit": "%"}]}
